According to patent publication US11744791B2, “Cosmetic composition comprising amide-based compound” (Neopharm Co., Ltd., priority 2020, dated 2023):

Key:
[1] = test system: CD44; assay: Analysis of expression level of CD44 in adipose tissue-derived mesenchymal stem cells; assay type: cell-based, human; details: hADSCs, sample 100 μM
Protocol: For flow cytometric analysis of the adipose tissue-derived stem cells of Examples and Comparative Examples of the present invention, an expression level of CD44 was measured. For this purpose, each of the samples was added to each medium. A sample (100 μM) of Example 1 or 2 or Comparative Example 1 or 2 including the amide-based compound having a structure shown in the following Table 1. Also, a sample treated with 10 μM IGF-1 was used as the positive control, and the control in which the cells were not treated with the sample was used as the comparison group.
Specifically, RNA was isolated from human adipose tissue-derived mesenchymal stem cells (hADSCs) according to the manufacturer's instructions using an easy BLUE reagent. The isolated RNA was dissolved in distilled water supplemented with diethyl procarbonate (DEPC), and the absorbance was measured at 260 nm, and a concentration of the RNA was quantified, and then used for experiments. Then, an expression level of CD44 in the adipose tissue-derived stem cells was analyzed.

[2] = test system: PPAR-γ; assay: Analysis of expression level of PPAR-γ (Western blot) in sebocytes; assay type: cell-based; details: human sebocytes, 24 hours
Protocol: An expression level of PPAR-γ was determined through Western blot in Examples and Comparative Examples of the present invention.
Specifically, human sebocytes were cultured in a 12-well plate containing a Dulbecco's modified eagle medium (DMEM)/F12 (1:1) medium supplemented with 10% fetal bovine serum (FBS) to attach 1.5×10^5 (1 mL/well) sebocytes to the 12-well plate. The sebocytes were cultured for 24 hours, and the medium was replaced with a serum-free medium. Then, an experimental group in which the cells were treated with each of the compounds of Examples or Comparative Examples was cultured for 24 hours, and the cells were then recovered. Thereafter, each of these samples was subjected to Western blot to analyze an expression level of PPAR-γ in the sebocytes. A sample (100 μM) of Example 1 or 2 or Comparative Example 1 or 2 including the amide-based compound having a structure shown in the following Table 1 was used as the sample. Also, a sample treated with 10 μM IGF-1 was used as the positive control, and the control in which the cells were not treated with the sample was used as the comparison group.

[3] = test system: filaggrin; assay: Expression level of filaggrin gene in keratinocytes (Real-Time PCR); assay type: cell-based, human; details: sample 100 μM, 24 hours
Protocol: (§1) To determine effects of the samples of Examples and Comparative Examples of the present invention on promotion of expression of moisturizing factors, expression levels of filaggrin and loricrin were measured.
(§2) Specifically, keratinocytes commercially available from Invitrogen Corp. were cultured for a predetermined period of time in an EpiLife medium (keratinocyte growth media:keratinocyte growth medium) supplemented with a human keratinocyte growth supplement (HKGS), subcultured three times, and then used. The keratinocytes which were subcultured 3 times were cultured to a confluence of 70 to 80% in a 6-well plate, and each of the wells was separately treated with each of the samples. Thereafter, the cells were cultured for a total of 24 hours. RNA of the keratinocytes was extracted from the cultured cells using an easy BLUE reagent, and cDNA was synthesized using a SuperScript reverse transcriptase III kit. A 7500 Fast Real-Time PCR for genetic comparison was performed using a 2×TaqMan universal PCR mixture (10 μL), a 20×TaqMan expression assay mix (1 μL), cDNA (50 ng), and primers (Filaggrin: Hs00856927_g1*, Loricrin: Hs01894962_s1*). Also, a sample treated with 10 μM IGF-1 was used as the positive control, and the control in which the cells were not treated with the sample was used as the comparison group.

[4] = test system: loricrin; assay: Expression level of loricrin gene in keratinocytes (Real-Time PCR); assay type: cell-based, human; details: sample 100 μM, 24 hours
Protocol: as §1, §2

## CCCCCCCC(=O)NCCO [Comparative Example 2, N-(2-hydroxyethyl)octanamide, reference compound]
[1]
  expression level of CD44 (in words), compared to the control: lower expression level of CD44
[2]; sample 100 μM
  inhibited the expression of PPAR-γ, compared to the control: 75.5%

## CCCCCCCCCC(=O)NC(CO)CO [Example 1, N-(2-hydroxy-1-(hydroxymethyl)ethyl)decanamide]
[3]
  enhanced expression level of filaggrin, compared to the control: ≥ 300%
[4]
  enhanced expression level of loricrin, compared to the control: ≥ 400%
[2]; sample 100 μM
  effect of improving the expression of PPAR-γ: 128.4%

## CCCCCC(=O)NCC(O)CO (stereo not shown) [Example 2, N-(2,3-dihydroxypropyl)hexanamide]
[2]; sample 100 μM
  effect of improving the expression of PPAR-γ: 140.8%

## IGF-1: positive control, sample treated with 10 μM IGF-1 [reference compound]
[2]; IGF-1 10 μM, samples 100 μM
  expression of PPAR-γ (in words): promoted
